# Laboratory results reported in patent US12581252B2, “Substituted pyrrolo[3,4-b]pyridines as PI3K-α inhibitors” (Relay Therapeutics, Inc., priority 2020, dated 2026).
# Target: H1047R PIK3CA enzyme (Homo sapiens, UniProt P42336, H1047R)
# Assay: ADP-Glo Biochemical PIK3CA Kinase Assay
# Description: Compounds to be assayed were plated in 16 doses of 1:2 serial dilutions (20 nL volume each well) on a 1536-well plate, and the plate warmed to room temperature. […] To the well was added 1 μL of 200 μM ATP and 20 μM of diC8-PIP2 in Substrate Assay Buffer (50 mM HEPES pH7.4, 50 mM NaCl, 5 mM DTT and 0.03% CHAPS) to start the reaction, and the plate was shaken for 10 seconds, then spun briefly at 1500 rpm, and then incubated for 60 minutes at room temperature. The reaction was stopped by adding 2 μL of ADP-Glo reagent (Promega), and spinning briefly at 1500 rpm, and then incubating for 40 minutes. ADP-Glo Detection reagent (Promega) was added and the plate spun briefly at 1500 rpm, then incubated for 30 minutes.
# H1047R PIK3CA enzyme, sequence (P42336 whole entry H1047R): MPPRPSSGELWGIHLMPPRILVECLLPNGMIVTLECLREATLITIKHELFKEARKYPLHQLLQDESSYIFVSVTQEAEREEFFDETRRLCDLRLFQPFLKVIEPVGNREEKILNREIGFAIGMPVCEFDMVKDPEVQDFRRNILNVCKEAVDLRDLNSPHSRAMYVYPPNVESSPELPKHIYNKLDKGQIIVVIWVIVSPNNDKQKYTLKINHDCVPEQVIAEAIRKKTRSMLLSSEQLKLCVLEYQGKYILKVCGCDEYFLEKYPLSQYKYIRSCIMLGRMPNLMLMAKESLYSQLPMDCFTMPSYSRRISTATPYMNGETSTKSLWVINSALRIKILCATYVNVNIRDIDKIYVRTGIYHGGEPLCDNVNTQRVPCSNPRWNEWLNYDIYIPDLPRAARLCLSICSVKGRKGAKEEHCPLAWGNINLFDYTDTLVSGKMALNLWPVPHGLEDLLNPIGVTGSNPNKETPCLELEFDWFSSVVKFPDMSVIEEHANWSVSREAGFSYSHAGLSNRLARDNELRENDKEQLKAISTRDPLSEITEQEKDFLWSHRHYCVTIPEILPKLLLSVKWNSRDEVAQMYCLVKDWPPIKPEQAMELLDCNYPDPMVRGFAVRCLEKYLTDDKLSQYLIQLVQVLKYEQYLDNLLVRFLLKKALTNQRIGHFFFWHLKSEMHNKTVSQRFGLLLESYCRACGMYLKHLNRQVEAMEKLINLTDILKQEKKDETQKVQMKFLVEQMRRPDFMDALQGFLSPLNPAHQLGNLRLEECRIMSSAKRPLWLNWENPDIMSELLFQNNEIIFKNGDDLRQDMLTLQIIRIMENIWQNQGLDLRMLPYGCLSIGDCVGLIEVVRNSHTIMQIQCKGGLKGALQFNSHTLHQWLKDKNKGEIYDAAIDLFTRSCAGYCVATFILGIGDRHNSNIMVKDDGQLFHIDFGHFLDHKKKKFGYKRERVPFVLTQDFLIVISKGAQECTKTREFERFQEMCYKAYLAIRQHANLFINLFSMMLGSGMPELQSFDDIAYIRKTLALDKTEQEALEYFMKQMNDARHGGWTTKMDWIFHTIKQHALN
# H1047R PIK3CA enzyme, sequence (P27986 whole entry partner): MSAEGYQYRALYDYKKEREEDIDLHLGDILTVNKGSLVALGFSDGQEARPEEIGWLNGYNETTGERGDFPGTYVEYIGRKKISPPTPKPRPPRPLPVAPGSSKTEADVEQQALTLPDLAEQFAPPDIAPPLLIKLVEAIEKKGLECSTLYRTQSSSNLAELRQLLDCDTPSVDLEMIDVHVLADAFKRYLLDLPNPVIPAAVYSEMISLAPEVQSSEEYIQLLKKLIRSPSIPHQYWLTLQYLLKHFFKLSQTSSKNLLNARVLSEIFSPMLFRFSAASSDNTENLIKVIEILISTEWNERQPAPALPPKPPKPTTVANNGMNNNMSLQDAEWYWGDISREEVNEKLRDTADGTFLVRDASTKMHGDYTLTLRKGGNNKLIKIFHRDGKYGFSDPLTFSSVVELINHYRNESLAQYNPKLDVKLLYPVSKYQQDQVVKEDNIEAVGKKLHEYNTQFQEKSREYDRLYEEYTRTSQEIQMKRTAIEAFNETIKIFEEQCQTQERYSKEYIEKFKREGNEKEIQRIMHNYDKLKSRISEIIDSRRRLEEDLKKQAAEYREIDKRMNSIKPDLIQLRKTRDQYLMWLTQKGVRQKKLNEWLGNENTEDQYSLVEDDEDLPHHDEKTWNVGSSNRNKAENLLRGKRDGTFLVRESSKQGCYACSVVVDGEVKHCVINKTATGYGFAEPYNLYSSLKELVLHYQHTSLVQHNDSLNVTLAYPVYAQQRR
row,SMILES,IC50 [nM]
1,O=C(CCl)Nc1cc(NC(=O)c2cc(F)cc(C(F)(F)F)c2)c2c(c1)C(=O)NC2c1cc(F)ccc1Cl (centres unmarked) [Compound I-407],≤ 100
2,O=C1NC(c2cc(F)ccc2Cl)c2c(Nc3nccc4cc[nH]c34)cc(Br)cc21 (centres unmarked) [Compound I-1460],10000 to 100000
3,Cc1ccccc1[C@@H]1NC(=O)c2cc(N)cc(NC(=O)c3cc(F)cc(C(F)(F)F)c3)c21 [Compound I-66],≤ 100
4,O=C1NCc2c(NC(=O)N3CCCC[C@@H]3Cc3ccccc3)cccc21 (stereo in doubt) [Compound I-989],10000 to 100000
5,O=C1NC(c2cc(F)ccc2Cl)c2c(NC(=O)C3COCCN3)cc(-c3ccc4ncnn4c3)cc21 (mixture of isomers) [Compound I-1991],10000 to 100000
6,"C[C@@H](O)c1cc(-c2ccc3ncnn3c2)cc2c1[C@H](c1cc(F)ccc1Cl)NC2=O (single isomer, unassigned) [Compound I-2231]",10000 to 100000
7,"O=C1N[C@@H](c2cc(F)ccc2Cl)c2c(NC(=O)N3C[C@@H](CO)[C@H](C(F)(F)F)C3)cccc21 (single isomer, unassigned) [Compound I-2277]",1000 to 10000
8,O=C1NC(c2cc(F)ccc2Cl)c2c(NC(=O)c3cc(F)cc4cc[nH]c34)cc(Br)cc21 (centres unmarked) [Compound I-711],≤ 100
9,CC(C)(C#N)c1cc(NC(=O)c2cc(F)cc(C(F)(F)F)c2)c2c(c1)C(=O)NC2c1cc(F)ccc1Cl (centres unmarked) [Compound I-1268],≤ 100
10,O=C(Nc1cc(-c2ccn[nH]2)cc2c1[C@@H](c1cc(F)ccc1Cl)NC2=O)c1cc(F)cc(C(F)(F)F)c1 [Compound I-866],1000 to 10000
11,O=C1NC(c2cc(F)ccc2Cl)c2c(Nc3nc4ccccc4[nH]3)cc(-c3ccc4ncnn4c3)cc21 (centres unmarked) [Compound I-1727],1000 to 10000
12,N#Cc1ccncc1-c1cc(NC(=O)c2cc(F)cc(C(F)(F)F)c2)c2c(c1)C(=O)NC2c1cc(F)ccc1Cl (centres unmarked) [Compound I-1537],≤ 100
13,O=C1NC(c2cc(F)ccc2Cl)c2c(NC(=O)c3cc(F)cc4cn[nH]c34)cccc21 (centres unmarked) [Compound I-595],1000 to 10000
14,N#Cc1c(-c2cc(NC(=O)c3cc(F)cc(C(F)(F)F)c3)c3c(c2)C(=O)N[C@H]3c2cc(F)ccc2Cl)cnn1C(F)F [Compound I-1921],≤ 100
15,O=C(Nc1cc(-c2ccc3ncnn3c2)cc2c1C(c1cc(F)ccc1Cl)NC2=O)C(=NO)c1ccccc1 (centres unmarked) [Compound I-1760],10000 to 100000
16,Cn1cc(-c2cc(NC(=O)c3nsc4ccccc34)c3c(n2)C(=O)N[C@@H]3c2ccccc2Cl)cn1 [Compound I-113],100 to 500
17,"C[S@@](=O)(Cc1cc(NC(=O)c2cc(F)cc(C(F)(F)F)c2)c2c(c1)C(=O)N[C@H]2c1cc(F)ccc1Cl)=NC#N (single isomer, unassigned) [Compound I-1565]",≤ 100
18,"O=C1N[C@@H](c2cc(F)ccc2Cl)c2c(NC(=O)N3C[C@@](O)(C(F)(F)F)c4cc(F)ccc43)cc(-n3ccnn3)cc21 (single isomer, unassigned) [Compound I-2549]",100 to 500
19,O=C(Nc1cccc2c1[C@H]([C@@H]1CCCC(F)(F)C1)NC2=O)c1cc(F)cc(C(F)(F)F)c1 [Compound I-1752],1000 to 10000
20,"NCCc1cc(NC(=O)N2C[C@@H](O)c3cc(F)ccc32)c2c(c1)C(=O)N[C@H]2c1cc(F)ccc1Cl (single isomer, unassigned) [Compound I-2446]",1000 to 10000

row,SMILES,IC50 [nM]
1,CC1(F)CN(c2cc(NC(=O)c3cc(F)cc(C(F)(F)F)c3)c3c(n2)C(=O)NC3c2cc(F)ccc2Cl)C1 (centres unmarked) [Compound I-368],100 to 500
2,O=C(Nc1cc(OCC(O)CO)cc2c1C(c1cc(F)ccc1Cl)NC2=O)c1cc(F)cc(C(F)(F)F)c1 (centres unmarked) [Compound I-1341],≤ 100
3,O=C(Nc1cc(Cc2ccc3c(c2)CCNC3=O)cc2c1C(c1cc(F)ccc1Cl)NC2=O)c1cc(F)cc(C(F)(F)F)c1 (centres unmarked) [Compound I-1475],≤ 100
4,O=C(Nc1cc(Br)cc2c1C(c1cc(F)ccc1Cl)NC2=O)c1ccc(OC(F)F)c(F)c1 (centres unmarked) [Compound I-1286],1000 to 10000
5,O=C(Nc1cc(F)cc(C(F)(F)F)c1)c1cccc2c1C(c1cc(F)ccc1Cl)NC2=O (centres unmarked) [Compound I-1353],1000 to 10000
6,O=C1N[C@H](c2cc(F)ccc2Cl)c2c(NC(=O)N3C[C@@H](O)C[C@@H]3CC(F)(F)F)cccc21 (racemic) [Compound I-2165],10000 to 100000
7,O=C(Nc1cc(O)cc2c1C(c1cc(F)ccc1Cl)NC2=O)c1cc(F)cc(C(F)(F)F)c1 (centres unmarked) [Compound I-363],≤ 100
8,"O=C1N[C@H](c2cc(F)ccc2Cl)c2c(NC(=O)N3C[C@@H](O)c4cc(F)ccc43)cc(-c3cnn(C(F)F)c3)cc21 (single isomer, unassigned) [Compound I-2476]",10000 to 100000
9,O=C(Nc1cc(-c2ccc3ncnn3c2)cc2c1C(c1cc(F)ccc1Cl)NC2=O)c1cc(F)cc2c1NC(=O)C2(F)F (centres unmarked) [Compound I-1547],≤ 100
10,O=C(Nc1cc(CC2(O)CCC2)cc2c1C(c1cc(F)ccc1Cl)NC2=O)c1cc(F)cc(C(F)(F)F)c1 (centres unmarked) [Compound I-706],≤ 100
11,"CNc1cc(NC(=O)N2C[C@@](O)(C(F)(F)F)c3cc(F)ccc32)c2c(c1C#N)C(=O)N[C@H]2c1cc(F)ccc1Cl (single isomer, unassigned) [Compound I-2606]",1000 to 10000
12,O=C(Nc1cnc(-c2cn[nH]c2)c2c1C(c1cc(F)ccc1Cl)NC2=O)c1cc(F)cc(C(F)(F)F)c1 (centres unmarked) [Compound I-287],100 to 500
13,O=C(Nc1cc(-c2cnc(-n3ccnc3)nc2)cc2c1C(c1cc(F)ccc1Cl)NC2=O)c1cc(F)cc(C(F)(F)F)c1 (centres unmarked) [Compound I-1482],≤ 100
14,O=C1NC(c2cc(F)ccc2Cl)c2c(Nc3n[nH]c4c(C(F)(F)F)cc(F)cc34)cc(-c3ccc4ncnn4c3)cc21 (centres unmarked) [Compound I-2049],≤ 100
15,O=C(Nc1cc(-c2cn3c(F)cnc3cn2)cc2c1[C@@H](c1cc(F)ccc1Cl)NC2=O)c1cc(F)cc(C(F)(F)F)c1 [Compound I-1877],1000 to 10000
16,O=C1NC(c2cc(F)ccc2Cl)c2c(NC(=O)c3cccc4c(Cl)c[nH]c34)cc(Br)cc21 (centres unmarked) [Compound I-1271],500 to 1000
17,Cc1ccccc1C1NC(=O)c2nccc(NC(=O)N3CC(C)c4ccccc43)c21 (centres unmarked) [Compound I-249],100 to 500
18,O=C(Nc1cc(-c2cn3ccnc3cn2)cc2c1[C@@H](c1cc(F)ccc1Cl)NC2=O)c1cc(F)cc(C(F)(F)F)c1 [Compound I-1329],1000 to 10000
19,Nc1ccc(C(=O)Nc2cc(Br)cc3c2C(c2cc(F)ccc2Cl)NC3=O)cc1C(F)(F)F (centres unmarked) [Compound I-719],1000 to 10000
20,"[2H][C@]1(c2cc(F)ccc2Cl)NC(=O)c2cccc(NC(=O)N3C[C@@](O)(C(F)(F)F)c4cc(F)ccc43)c21 (single isomer, unassigned) [Compound I-2683]",1000 to 10000

row,SMILES,IC50 [nM]
1,Cc1ccccc1[C@H]1NC(=O)c2cccc(NC(=O)c3csc4ccccc34)c21 [Compound I-4],500 to 1000
2,O=C(Nc1cc(-c2ccc3ncnn3c2)cc2c1[C@H](c1cc(F)ccc1Cl)NC2=O)c1cc(F)cc(C(F)F)c1 (stereo in doubt) [Compound I-1171],100 to 500
3,COc1ncc(-c2cc(NC(=O)c3cc(F)cc(C(F)(F)F)c3)c3c(c2)C(=O)NC3c2cc(F)ccc2Cl)cn1 (centres unmarked) [Compound I-782],≤ 100
4,O=C(Nc1cc(-c2cccnc2)cc2c1C(c1cc(F)ccc1Cl)NC2=O)c1cc(F)cc(C(F)(F)F)c1 (centres unmarked) [Compound I-888],≤ 100
5,O=C1N[C@H](c2cc(F)ccc2Cl)c2c(NC(=O)N3CCc4ccccc43)cc(-c3ccc4ncnn4c3)cc21 (stereo in doubt) [Compound I-1716],1000 to 10000
6,O=C1NC(c2ccc(F)cc2Cl)c2c(NC(=O)c3csc4ccccc34)cccc21 (centres unmarked) [Compound I-102],≤ 100
7,O=C(Nc1cc(-c2ccc3nc(Cl)cn3c2)cc2c1C(c1cc(F)ccc1Cl)NC2=O)c1cc(F)cc(C(F)(F)F)c1 (centres unmarked) [Compound I-1696],≤ 100
8,O=C(Nc1cc(CS(=O)(=O)N2CCOCC2)cc2c1[C@H](c1cc(F)ccc1Cl)NC2=O)c1cc(F)cc(C(F)(F)F)c1 [Compound I-1485],≤ 100
9,O=C(Nc1cc(Br)cc2c1C(c1cc(F)ccc1Cl)NC2=O)c1cncc(C(F)(F)F)c1 (centres unmarked) [Compound I-957],1000 to 10000
10,"NCCc1cc(NC(=O)N2C[C@@H](O)c3cc(F)ccc32)c2c(c1)C(=O)N[C@@H]2c1cc(F)ccc1Cl (single isomer, unassigned) [Compound I-2444]",100 to 500
11,O=C(Nc1cc(-c2ccc3ncc(Cl)n3c2)cc2c1C(c1cc(F)ccc1Cl)NC2=O)c1cc(F)cc(C(F)(F)F)c1 (centres unmarked) [Compound I-1694],≤ 100
12,N[C@H]1CCC[C@H](C(=O)Nc2cc(-c3ccc4ncnn4c3)cc3c2C(c2cc(F)ccc2Cl)NC3=O)C1 (mixture of isomers) [Compound I-1845],10000 to 100000
13,Cc1c(F)cccc1[C@H]1NC(=O)c2cc(Br)cc(NC(=O)c3cc(F)cc(C(F)(F)F)c3)c21 [Compound I-749],1000 to 10000
14,O=C(Nc1cc(Cl)cc2c1C(c1cc(F)ccc1Cl)NC2=O)c1cc(F)cc(C(F)(F)F)c1 (centres unmarked) [Compound I-688],≤ 100
15,"COCc1cc(NC(=O)N2C[C@](O)(C(F)(F)F)c3cc(F)ccc32)c2c(c1)C(=O)N[C@@H]2c1cc(F)ccc1Cl (single isomer, unassigned) [Compound I-2542]",1000 to 10000
16,Nc1nccc(-c2cc(NC(=O)c3cc(F)cc(C(F)(F)F)c3)c3c(c2)C(=O)NC3c2cc(F)ccc2Cl)n1 (centres unmarked) [Compound I-1090],≤ 100
17,CC(C)(O)c1cc(NC(=O)c2nsc3ccccc23)c2c(c1)C(=O)NC2c1ccccc1C(F)F (centres unmarked) [Compound I-356],≤ 100
18,O=C(Nc1cc(NC(=O)C2CNC2)cc2c1C(c1cc(F)ccc1Cl)NC2=O)c1cc(F)cc(C(F)(F)F)c1 (centres unmarked) [Compound I-389],100 to 500
19,O=C(Nc1cc(-n2ccc3ncccc3c2=O)cc2c1C(c1cc(F)ccc1Cl)NC2=O)c1cc(F)cc(C(F)(F)F)c1 (centres unmarked) [Compound I-1250],≤ 100
